The results in this text go back to patent publication US20120034250A1, “CONDENSED PYRROLOPYRIDINE DERIVATIVE” (Astellas Pharma Inc., priority 2009, published 2012).

One series deals with T1, human JAK1 kinase domain (Homo sapiens, UniProt P23458).
T1 construct: attached to the N-terminal of the 850 to 1154 (C-terminal) fragment of the human JAK1 protein; GST (N); purchased Carna Biosciences, Inc. (Kobe, Japan); host or cells: baculovirus expression system
The series can be described thus: JAK inhibition test: measurement of JAK1 activity. The format is biochemical. As to conditions: 500 μM ATP, absorbance at 450 nm. The text has this: (1) Preparation of Human JAK1
A purified human JAK1 kinase domain was purchased from Carna Biosciences, Inc. (Kobe, Japan). This was obtained as follows. A GST tag (62 kDa) was attached to the N-terminal of the 850 to 1154 (C-terminal) fragment of the human JAK1 protein (accession number #BAD92294.1), expressed using a baculovirus expression system, and then purified using Glutathion Sepharose chromatography.
(2) Measurement of JAK 1 Activity
As substrates, Biotin-Lyn-Substrate-2 (Biotin-XEQED EPEGF YFEWL EPE, X=ε−Acp (Peptide Institute, Inc., Osaka, Japan) and ATP were used. As an assay buffer, 15 mM Tris-HCl pH 7.5 containing 0.01% Tween 20 and 2 mM DTT was used. Normally, 20 μL of a substrate solution (an assay buffer containing 627 nM Biotin-Lyn-Substrate-2, 500 μM ATP, and 25 mM MgCl2), an assay buffer containing 10 μL of a test compound, and 20 μL of an enzyme solution were added to a microplate, and stirred sufficiently.
(§1) After incubation at room temperature for 1 hour, the plate was washed with a cleaning buffer (50 mM Tris-HCl pH 7.5, 150 mM NaCl, 0.02% Tween 20), and a blocking buffer (a cleaning buffer containing 0.1% bovine serum albumin) was added to the plate. After incubation at room temperature for 30 minutes, the blocking buffer was removed, and an HRP-PY-20 solution (obtained by diluting HRP-PY-20 solution with the blocking buffer 500 times) was added. After incubation at room temperature for 30 minutes, the plate was washed four times, and a TMB substrate solution (Sigma) was added to the plate. After incubation at room temperature for 4 minutes, 1 M sulfuric acid was added to stop the reaction. Enzyme activity was measured with an absorbance at 450 nm. The JAK1 inhibitory activity of the test compound was calculated by taking the concentration of the test compound which inhibits the JAK1 activity by 50% as an IC50 value.

The target of a further series is T2, human JAK2 kinase domain (Homo sapiens, UniProt O60674).
T2 construct: attached to the N-terminal of the 826 to 1132 (C-terminal) fragment of the human JAK2 protein; His tag (N); purchased Carna Biosciences, Inc. (Kobe, Japan); host or cells: baculovirus expression system
T2 sequence (O60674 826-1132): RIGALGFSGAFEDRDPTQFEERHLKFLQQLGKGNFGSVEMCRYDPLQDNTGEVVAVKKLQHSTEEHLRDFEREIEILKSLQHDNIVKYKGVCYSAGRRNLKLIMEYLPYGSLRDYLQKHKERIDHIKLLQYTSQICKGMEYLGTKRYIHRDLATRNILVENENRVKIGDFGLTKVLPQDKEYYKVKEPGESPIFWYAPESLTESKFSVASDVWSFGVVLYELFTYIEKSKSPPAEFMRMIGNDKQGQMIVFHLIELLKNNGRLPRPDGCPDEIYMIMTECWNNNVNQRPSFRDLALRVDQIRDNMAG
The series can be described thus: JAK inhibition test: measurement of JAK2 activity. In kind it is biochemical. As to conditions: 25 μM ATP, absorbance at 450 nm.
From the text: (3) Preparation of Human JAK2
A purified human JAK2 kinase domain was purchased from Carna Biosciences, Inc. (Kobe, Japan). This was obtained as follows. A His tag (39 kDa) was attached to the N-terminal of the 826 to 1132 (C-terminal) fragment of the human JAK2 protein (accession number #NP_004963.1), expressed using a baculovirus expression system, and then purified using Ni-NTA affinity column chromatography.
(4) Measurement of JAK2 Activity
As substrates, Biotin-Lyn-Substrate-2 (Biotin-XEQED EPEGF YFEWL EPE, X=ε−Acp (Peptide Institute, Inc., Osaka, Japan) and ATP were used. As an assay buffer, 15 mM Tris-HCl pH 7.5 containing 0.01% Tween 20 and 2 mM DTT was used. Normally, 20 μL of a substrate solution (an assay buffer containing 627 nM Biotin-Lyn-Substrate-2, 25 μM ATP, and 25 mM MgCl2), an assay buffer containing 10 μL of a test compound, and 20 μL of an enzyme solution were added to a microplate, and stirred sufficiently.
as §1, with “JAK2” for “JAK1”

For another series, the target named is T3, human JAK3 kinase domain (Homo sapiens, UniProt P52333).
T3 construct: attached to the N-terminal of the 796 to 1124 (C-terminal) fragment of the human JAK3 protein; His tag (N); purchased Carna Biosciences, Inc. (Kobe, Japan); host or cells: baculovirus expression system
T3 sequence (P52333 796-1124): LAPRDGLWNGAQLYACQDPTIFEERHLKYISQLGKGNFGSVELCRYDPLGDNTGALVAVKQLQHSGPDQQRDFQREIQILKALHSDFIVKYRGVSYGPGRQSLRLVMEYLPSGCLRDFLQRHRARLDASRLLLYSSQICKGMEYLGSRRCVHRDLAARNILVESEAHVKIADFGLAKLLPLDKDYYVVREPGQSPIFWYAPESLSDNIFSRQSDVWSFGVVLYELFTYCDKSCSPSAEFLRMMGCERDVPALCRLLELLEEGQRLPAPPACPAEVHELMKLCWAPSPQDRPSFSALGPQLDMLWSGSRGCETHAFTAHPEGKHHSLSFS
Kind of series: JAK inhibition test: measurement of JAK3 activity. As to conditions: 20 μM ATP, absorbance at 450 nm. The format is biochemical.
From the text: (5) Preparation of Human JAK3
A purified human JAK3 kinase domain was purchased from Carna Biosciences, Inc. (Kobe, Japan). This was obtained as follows. A His tag (41 kDa) was attached to the N-terminal of the 796 to 1124 (C-terminal) fragment of the human JAK3 protein (accession number #NM_000215), expressed using a baculovirus expression system, and then purified using Ni-NTA affinity column chromatography.
(6) Measurement of JAK3 Activity
As substrates, Biotin-Lyn-Substrate-2 (Biotin-XEQED EPEGF YFEWL EPE, X=ε−Acp (Peptide Institute, Inc., Osaka, Japan) and ATP were used. As an assay buffer, 15 mM Tris-HCl pH 7.5 containing 0.01% Tween 20 and 2 mM DTT was used. Normally, 20 μL of a substrate solution (an assay buffer containing 627 nM Biotin-Lyn-Substrate-2, 20 μM ATP, and 25 mM MgCl2), an assay buffer containing 10 μL of a test compound, and 20 μL of an enzyme solution
as §1, with “JAK3” for “JAK1”

Series [1] deals with stat5 phosphorylation of CD3+lymphocytes in the blood. Kind of series: Measurement of PD activity (stat5 phosphorylation in blood after oral dosing). As to conditions: 20 mg/kg orally to normal rats, blood collected 4 hours later, cytokine stimulation, FACS. The format is in vivo, rat. As for the experimental part: Measurement of PD activity was carried out by evaluating the degree of stat5 phosphorylation of CD3+lymphocytes in the blood.
Compounds at (20 mg/kg) were orally administered to normal rats, and 4 hours later, 200 μL of blood was collected therefrom. For phosphorylation of stat5, stimulating cytokines (IL-2, 7, 15, etc., Peprotec) were added thereto, and CD3 antibodies fluorescently labeled (BD pharmingen) was added at a dose of 1/20, followed by incubation at 37° C. 5 mL of a lysing buffer (BD Pharmingen) was added to stop the reaction, and then washed by the addition of PBS (−) (Phosphate Buffered Saline (−), manufactured by Shin Yang Chemical Industries, Ltd.). 300 μL of a permeabilization buffer (BD Pharmingen) was added thereto, followed by immobilization on ice. The resultant was washed with a FACS buffer, and then fluorescently-labeled phosphorylation stat5 antibodies (BD Pharmingen) were added thereto, followed by further incubation at room temperature. After incubation, the cells were washed with a FACS buffer, insoluble materials were removed through a filter. Fluorescence measurement was carried out using a FACScalibur. For an individual of each rat, a sample with addition of cytokine and a sample without addition of cytokine were prepared, and a difference of the respective average fluorescence intensities (AMFI) was determined. As a control, the blood of rats to which the compound had not been administered was used, and an inhibitory rate was calculated from the average fluorescence intensity of the respective group of the samples to which the compound had been added, relative to the average fluorescence intensity of the control sample (Inhibitory Rate (%)=100*(1−(ΔMFI of Sample)/(ΔMFI of Control)).

Series [2] relates to heart transplantation rejection. The series can be described thus: Rat heart transplantation (heterotopic, ACI donor to Lewis recipient). The format is in vivo. As to conditions: 20 mg/kg orally once daily for 14 days from transplantation, observed 29 days. As for the experimental part:
Heterotopic heart transplantation into the rat abdomen was performed in accordance with reference materials. With regard to the animals, ACI-based male rats were used as donors and Lewis-based male rats were used as recipients. In addition, Lewis rats were fasted the day before the transplant. The test drugs were orally administered at a dose of 20 mg/kg once daily for 14 days from the date of transplantation. For determining the heart transplantation rejection, the heart transplantation was observed daily by palpation for 29 days after transplantation, and stoppage of beating was taken as rejection. The survival period in days was counted until the day before rejection. From the survival period in days, a value of MST (Median Survival Time) was determined.

T1 sequence (P23458 850-1154): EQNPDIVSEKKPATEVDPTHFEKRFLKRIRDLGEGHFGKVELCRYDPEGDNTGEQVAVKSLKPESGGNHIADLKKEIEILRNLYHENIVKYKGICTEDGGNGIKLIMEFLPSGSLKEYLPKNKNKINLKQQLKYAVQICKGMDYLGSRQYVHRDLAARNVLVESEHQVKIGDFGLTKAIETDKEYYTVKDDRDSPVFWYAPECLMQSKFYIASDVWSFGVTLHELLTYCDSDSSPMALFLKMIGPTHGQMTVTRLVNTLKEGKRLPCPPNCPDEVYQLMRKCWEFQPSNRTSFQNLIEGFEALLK

`C[C@@H]1CCN(C(=O)CC#N)C[C@@H]1n1cc(Br)c2cnc3[nH]cc(C#N)c3c21` (racemic) [Example 2-2]: the IC50 amounted to 6.9 nM against human JAK1 kinase domain, 2.5 nM at human JAK2 kinase domain and 0.27 nM against human JAK3 kinase domain.
The corresponding values for `C[C@@H]1CCN(C(=O)CC#N)C[C@@H]1n1ccc2cnc3[nH]cc(Br)c3c21` (racemic) [Example 2-4] are 6.8 nM, 1 nM and 0.26 nM.
As to `C[C@@H]1CCN(C(=O)CC#N)C[C@@H]1n1cc(Br)c2cnc3[nH]ccc3c21` (racemic) [Example 2-5], the concentration for half-maximal inhibition (IC50) at human JAK1 kinase domain was 1.1 nM; on human JAK2 kinase domain it was 0.6 nM; against human JAK3 kinase domain, 0.3 nM. In series [1], the “Inhibition Ratio (stat5 phosphorylation)” value turned out to be 86%.
`C[C@@H]1CCN(C(=O)CC#N)C[C@@H]1n1ccc2cnc3[nH]ccc3c21` (racemic) [Example 2-7]: in series [1], the “Inhibition Ratio (stat5 phosphorylation)” value stood at 95%. Also, in series [2], the “MST (Median Survival Time)” value was above 28 days.
On to `C[C@@H]1CCN(C(=O)Cn2cnnn2)C[C@@H]1n1ccc2cnc3[nH]ccc3c21` (racemic) [Example 2-14], for which the IC50 on human JAK1 kinase domain stood at 3.1 nM; against human JAK2 kinase domain it was 2.5 nM; on human JAK3 kinase domain it was 0.52 nM.
The corresponding values for `Cc1nnnn1CC(=O)N1CC[C@@H](C)[C@@H](n2ccc3cnc4[nH]ccc4c32)C1` (racemic) [Example 2-15] are 4.7 nM, 2.9 nM and 1.3 nM.
The corresponding values for `C[C@@H]1CCN(C(=O)CC#N)C[C@@H]1n1cc(-c2ccncc2)c2cnc3[nH]cc(C#N)c3c21` (racemic) [Example 2-17] are 0.76 nM, 0.53 nM and 0.41 nM.
Regarding `Cc1cc2cnc3[nH]ccc3c2n1[C@H]1CN(C(=O)CC#N)CC[C@H]1C` (racemic) [Example 2-74], the “Inhibition Ratio (stat5 phosphorylation)” value in series [1] was determined as 98%.
As to `C[C@@H]1CCN(c2cnc(C#N)cn2)C[C@@H]1n1ccc2cnc3[nH]ccc3c21` (racemic) [Example 4-1], the IC50 came out at 7.9 nM on human JAK1 kinase domain, 3 nM at human JAK2 kinase domain and 0.88 nM against human JAK3 kinase domain.
The corresponding values for `C[C@@H]1CCN(c2ccc(C#N)cn2)C[C@@H]1n1ccc2cnc3[nH]ccc3c21` (racemic) [Example 4] are 16 nM, 3.5 nM and 1.1 nM.
The corresponding values for `C[C@@H]1CCN(C(=O)N(C)CC#N)C[C@@H]1n1ccc2cnc3[nH]ccc3c21` (racemic) [Example 5-1] are 3 nM, 0.89 nM and 0.61 nM.
With `C[C@@H]1CCN(S(=O)(=O)N(C)CC#N)C[C@@H]1n1ccc2cnc3[nH]ccc3c21` (racemic) [Example 9-3], in series [1], the “Inhibition Ratio (stat5 phosphorylation)” value came to 62%.
For `O[C@]12CC3C[C@H](C1)[C@H](n1ccc4cnc5[nH]ccc5c41)[C@@H](C3)C2` [Example 1, (1S,3R,4R,5s)-4-(dipyrrolo[2,3-b:2′,3′-d]pyridin-1(6H)-yl)adamantan-1-ol], the IC50 at human JAK1 kinase domain came out at 6.1 nM; against human JAK2 kinase domain it was 1.6 nM; against human JAK3 kinase domain, 1 nM.
For `C[C@@H]1CCN(C(=O)CC#N)C[C@@H]1n1ccc2cnc3[nH]ccc3c21` [Example 2-10], the IC50 against human JAK1 kinase domain was found to be 0.49 nM; against human JAK2 kinase domain, 0.35 nM; against human JAK3 kinase domain, 0.19 nM. Besides, the “MST (Median Survival Time)” value in series [2] is reported as 17 days.
`C[C@H]1CCN(C(=O)CC#N)C[C@H]1n1ccc2cnc3[nH]cc(C#N)c3c21` [Example 2-18]: the melting point is 286 to 290 °C (dec.).
Turning to `C[C@@H]1CCN(C(=O)CC#N)C[C@@H]1n1ccc2cnc3[nH]cc(C#N)c3c21` [Example 2-19], the melting point is 288 to 290 °C (dec.). At human JAK1 kinase domain, this molecule came in with an IC50 of 3.2 nM. The IC50 against human JAK2 kinase domain came to 1.4 nM. Moreover, the half-maximal inhibitory concentration (IC50) against human JAK3 kinase domain is 0.11 nM.
